From ChEMBL document CHEMBL5291721, “A preclinical secondary pharmacology resource illuminates target-adverse drug reaction associations of marketed drugs” (Nat Commun, 2023)

What was measured:
Acetylcholinesterase = Acetylcholinesterase (Homo sapiens, UniProt P22303); format: functional
Adenosine receptor A3 = biological target: T1, Adenosine receptor A3 (Homo sapiens, UniProt P0DMS8)
T1 sequence (P0DMS8 whole entry): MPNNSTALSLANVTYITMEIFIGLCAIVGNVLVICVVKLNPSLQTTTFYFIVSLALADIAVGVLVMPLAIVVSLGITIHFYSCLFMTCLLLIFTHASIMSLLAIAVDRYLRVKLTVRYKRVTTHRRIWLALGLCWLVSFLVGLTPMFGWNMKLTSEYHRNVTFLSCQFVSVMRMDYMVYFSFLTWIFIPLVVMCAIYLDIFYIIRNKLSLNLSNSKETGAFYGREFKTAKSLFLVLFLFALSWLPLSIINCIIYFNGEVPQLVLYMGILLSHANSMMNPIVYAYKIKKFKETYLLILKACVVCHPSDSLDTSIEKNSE

[1] = biological target: cGMP-inhibited 3',5'-cyclic phosphodiesterase 3A (Homo sapiens, UniProt Q14432); format: functional
Chain of cGMP-inhibited 3',5'-cyclic phosphodiesterase 3A (Q14432 whole entry): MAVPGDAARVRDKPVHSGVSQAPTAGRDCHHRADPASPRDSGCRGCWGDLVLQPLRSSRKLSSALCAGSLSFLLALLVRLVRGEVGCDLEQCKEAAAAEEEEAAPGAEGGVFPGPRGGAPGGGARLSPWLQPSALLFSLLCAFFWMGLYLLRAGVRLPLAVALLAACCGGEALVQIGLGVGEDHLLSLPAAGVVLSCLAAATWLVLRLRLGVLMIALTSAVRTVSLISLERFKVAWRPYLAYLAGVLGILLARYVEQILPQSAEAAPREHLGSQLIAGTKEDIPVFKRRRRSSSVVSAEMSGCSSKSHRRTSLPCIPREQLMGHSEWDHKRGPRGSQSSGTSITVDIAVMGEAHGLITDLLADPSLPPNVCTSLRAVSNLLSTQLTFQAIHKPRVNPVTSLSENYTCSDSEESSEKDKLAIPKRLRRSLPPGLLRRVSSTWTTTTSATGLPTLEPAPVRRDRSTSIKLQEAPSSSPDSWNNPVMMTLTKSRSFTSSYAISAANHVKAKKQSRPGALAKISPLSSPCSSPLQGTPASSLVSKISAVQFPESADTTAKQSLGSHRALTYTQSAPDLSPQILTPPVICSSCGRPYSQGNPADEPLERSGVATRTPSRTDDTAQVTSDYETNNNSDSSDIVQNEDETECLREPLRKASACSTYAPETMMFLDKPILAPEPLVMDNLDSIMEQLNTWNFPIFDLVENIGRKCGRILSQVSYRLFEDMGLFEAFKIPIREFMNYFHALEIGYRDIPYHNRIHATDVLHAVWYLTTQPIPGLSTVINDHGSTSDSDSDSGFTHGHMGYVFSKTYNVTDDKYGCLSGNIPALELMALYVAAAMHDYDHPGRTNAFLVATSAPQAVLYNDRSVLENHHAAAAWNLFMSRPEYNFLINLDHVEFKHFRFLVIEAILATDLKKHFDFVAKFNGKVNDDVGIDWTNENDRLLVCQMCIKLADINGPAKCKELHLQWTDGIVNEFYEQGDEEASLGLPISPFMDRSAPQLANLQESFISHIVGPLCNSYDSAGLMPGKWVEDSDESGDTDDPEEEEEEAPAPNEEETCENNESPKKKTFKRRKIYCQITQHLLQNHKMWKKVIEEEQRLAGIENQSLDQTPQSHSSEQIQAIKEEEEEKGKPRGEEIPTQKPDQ

[2] = biological target: T2, Muscarinic acetylcholine receptor M2 (Homo sapiens, UniProt P08172); format: functional, cell-based
T2 sequence (P08172 whole entry): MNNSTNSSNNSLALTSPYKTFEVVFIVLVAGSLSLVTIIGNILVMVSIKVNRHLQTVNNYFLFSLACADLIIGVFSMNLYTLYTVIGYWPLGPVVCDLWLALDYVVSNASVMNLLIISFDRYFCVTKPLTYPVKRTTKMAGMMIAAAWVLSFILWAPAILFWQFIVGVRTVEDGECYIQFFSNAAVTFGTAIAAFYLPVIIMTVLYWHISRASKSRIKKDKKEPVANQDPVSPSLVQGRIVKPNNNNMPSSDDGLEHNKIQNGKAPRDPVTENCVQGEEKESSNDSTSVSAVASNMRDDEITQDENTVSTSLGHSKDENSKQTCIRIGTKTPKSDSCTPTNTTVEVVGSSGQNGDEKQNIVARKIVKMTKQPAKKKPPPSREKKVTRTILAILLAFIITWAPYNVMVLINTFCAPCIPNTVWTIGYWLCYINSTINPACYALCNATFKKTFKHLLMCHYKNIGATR

Cannabinoid receptor 1 = Cannabinoid receptor 1 (Homo sapiens, UniProt P21554); format: functional, cell-based
Chain of Cannabinoid receptor 1 (P21554 whole entry): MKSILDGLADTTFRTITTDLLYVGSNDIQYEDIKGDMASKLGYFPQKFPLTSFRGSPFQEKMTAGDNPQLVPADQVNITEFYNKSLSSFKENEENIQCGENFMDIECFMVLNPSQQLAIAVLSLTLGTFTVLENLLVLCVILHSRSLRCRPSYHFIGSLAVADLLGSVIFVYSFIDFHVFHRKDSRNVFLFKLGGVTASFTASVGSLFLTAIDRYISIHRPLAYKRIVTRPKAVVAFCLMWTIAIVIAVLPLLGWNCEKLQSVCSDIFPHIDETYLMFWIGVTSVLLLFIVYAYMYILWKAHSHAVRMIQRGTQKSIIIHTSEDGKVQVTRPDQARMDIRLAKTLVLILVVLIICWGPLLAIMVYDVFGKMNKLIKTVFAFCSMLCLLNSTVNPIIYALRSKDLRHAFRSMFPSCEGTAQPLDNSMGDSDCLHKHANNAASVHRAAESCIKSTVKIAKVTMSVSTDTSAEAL

[3] = biological target: T3, Neuropeptide Y receptor type 1 (Homo sapiens, UniProt P25929)
T3 sequence (P25929 whole entry): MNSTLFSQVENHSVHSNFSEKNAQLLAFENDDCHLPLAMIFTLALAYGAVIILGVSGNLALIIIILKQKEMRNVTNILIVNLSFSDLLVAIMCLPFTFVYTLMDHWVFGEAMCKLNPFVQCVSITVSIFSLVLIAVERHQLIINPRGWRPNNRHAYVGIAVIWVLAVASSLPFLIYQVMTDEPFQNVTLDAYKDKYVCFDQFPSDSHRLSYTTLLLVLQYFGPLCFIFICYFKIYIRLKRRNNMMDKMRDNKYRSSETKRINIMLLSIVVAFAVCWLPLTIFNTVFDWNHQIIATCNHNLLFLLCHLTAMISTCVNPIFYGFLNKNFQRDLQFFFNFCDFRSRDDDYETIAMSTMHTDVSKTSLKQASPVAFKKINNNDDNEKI

Progesterone receptor = biological target: T4, Progesterone receptor (Homo sapiens, UniProt P06401); format: functional
T4 sequence (P06401 whole entry): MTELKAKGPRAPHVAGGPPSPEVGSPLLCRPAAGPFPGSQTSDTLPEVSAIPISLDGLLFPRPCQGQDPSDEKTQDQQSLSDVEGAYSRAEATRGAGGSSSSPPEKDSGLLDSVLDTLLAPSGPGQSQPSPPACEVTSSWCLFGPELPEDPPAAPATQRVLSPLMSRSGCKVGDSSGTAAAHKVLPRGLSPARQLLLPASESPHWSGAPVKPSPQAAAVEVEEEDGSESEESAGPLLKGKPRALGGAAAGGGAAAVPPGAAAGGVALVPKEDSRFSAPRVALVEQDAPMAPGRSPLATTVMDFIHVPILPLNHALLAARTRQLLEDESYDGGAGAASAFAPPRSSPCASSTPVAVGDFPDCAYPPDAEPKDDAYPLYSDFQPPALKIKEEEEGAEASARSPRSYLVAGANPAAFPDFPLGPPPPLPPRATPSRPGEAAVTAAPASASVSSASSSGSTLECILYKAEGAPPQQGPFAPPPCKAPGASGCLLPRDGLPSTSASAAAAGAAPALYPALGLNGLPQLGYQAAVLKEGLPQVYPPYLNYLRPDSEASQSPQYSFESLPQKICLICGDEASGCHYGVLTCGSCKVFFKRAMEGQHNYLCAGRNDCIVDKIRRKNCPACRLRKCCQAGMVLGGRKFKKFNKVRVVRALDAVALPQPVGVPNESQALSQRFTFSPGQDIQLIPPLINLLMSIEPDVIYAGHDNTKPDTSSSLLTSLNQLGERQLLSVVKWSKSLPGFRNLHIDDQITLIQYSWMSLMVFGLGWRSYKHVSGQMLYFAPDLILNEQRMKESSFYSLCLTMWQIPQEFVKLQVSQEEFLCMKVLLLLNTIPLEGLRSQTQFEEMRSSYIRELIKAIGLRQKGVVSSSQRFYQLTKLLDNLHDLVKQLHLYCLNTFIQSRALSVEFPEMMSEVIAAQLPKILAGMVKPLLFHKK

[4] = biological target: T5, Alpha-1A adrenergic receptor (Homo sapiens, UniProt P35348); format: functional, cell-based
T5 sequence (P35348 whole entry): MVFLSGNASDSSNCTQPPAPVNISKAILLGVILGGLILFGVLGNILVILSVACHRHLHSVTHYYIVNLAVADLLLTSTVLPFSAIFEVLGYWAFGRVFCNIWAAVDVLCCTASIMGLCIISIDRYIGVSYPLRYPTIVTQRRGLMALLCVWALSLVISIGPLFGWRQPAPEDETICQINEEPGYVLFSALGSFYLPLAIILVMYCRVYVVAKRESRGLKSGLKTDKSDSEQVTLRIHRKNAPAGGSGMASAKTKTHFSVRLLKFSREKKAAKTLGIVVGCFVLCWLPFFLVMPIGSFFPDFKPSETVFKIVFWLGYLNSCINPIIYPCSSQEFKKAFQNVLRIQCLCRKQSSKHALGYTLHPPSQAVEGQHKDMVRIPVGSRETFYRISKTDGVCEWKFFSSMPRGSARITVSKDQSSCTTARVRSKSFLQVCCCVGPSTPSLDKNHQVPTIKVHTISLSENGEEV

[5] = biological target: Gamma-aminobutyric acid receptor subunit alpha-1 (Rattus norvegicus, UniProt P62813)
Chain of Gamma-aminobutyric acid receptor subunit alpha-1 (P62813 whole entry): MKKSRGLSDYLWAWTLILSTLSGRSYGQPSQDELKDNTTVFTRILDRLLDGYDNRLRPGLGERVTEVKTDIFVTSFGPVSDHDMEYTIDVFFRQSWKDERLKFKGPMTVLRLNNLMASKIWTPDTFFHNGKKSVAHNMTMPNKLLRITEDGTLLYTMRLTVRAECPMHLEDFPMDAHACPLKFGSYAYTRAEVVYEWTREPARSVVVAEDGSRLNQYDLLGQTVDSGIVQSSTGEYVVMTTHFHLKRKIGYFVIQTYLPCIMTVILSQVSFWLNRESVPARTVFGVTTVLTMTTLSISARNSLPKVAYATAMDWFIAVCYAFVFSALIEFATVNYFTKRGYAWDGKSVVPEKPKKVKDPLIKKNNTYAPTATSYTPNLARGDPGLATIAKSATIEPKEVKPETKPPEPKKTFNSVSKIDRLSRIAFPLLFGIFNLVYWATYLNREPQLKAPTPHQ
Further: assay procedure not described here.

Chain of Acetylcholinesterase (P22303 whole entry): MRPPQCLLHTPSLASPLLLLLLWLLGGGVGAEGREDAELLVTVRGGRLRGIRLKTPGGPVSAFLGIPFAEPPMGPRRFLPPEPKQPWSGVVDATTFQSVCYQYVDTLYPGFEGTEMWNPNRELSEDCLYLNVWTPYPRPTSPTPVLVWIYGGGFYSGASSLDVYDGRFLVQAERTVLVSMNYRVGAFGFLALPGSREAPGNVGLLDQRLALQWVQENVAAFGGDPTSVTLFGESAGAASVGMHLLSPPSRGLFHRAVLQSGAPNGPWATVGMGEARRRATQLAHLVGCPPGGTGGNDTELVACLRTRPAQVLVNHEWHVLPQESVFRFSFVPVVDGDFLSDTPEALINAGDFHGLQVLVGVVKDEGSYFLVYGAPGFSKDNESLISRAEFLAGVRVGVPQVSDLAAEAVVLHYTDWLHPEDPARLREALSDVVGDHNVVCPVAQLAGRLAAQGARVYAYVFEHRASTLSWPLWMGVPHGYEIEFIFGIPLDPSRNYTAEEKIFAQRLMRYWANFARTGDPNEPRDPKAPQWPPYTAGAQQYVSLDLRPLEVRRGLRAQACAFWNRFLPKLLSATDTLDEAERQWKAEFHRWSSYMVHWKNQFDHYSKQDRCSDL

SMILES | AC50 (Acetylcholinesterase) [µM] | AC50 (Adenosine receptor A3) [µM] | AC50 [1] [µM] | AC50 [2] [µM] | AC50 (Cannabinoid receptor 1) [µM] | AC50 [3] [µM] | AC50 (Progesterone receptor) [µM] | AC50 [4] [µM] | AC50 [5] [µM]
CC(C)Nc1cccnc1N1CCN(C(=O)c2cc3cc(NS(C)(=O)=O)ccc3[nH]2)CC1 [DELAVIRDINE] | > 30 | 21.4 | > 30 | – | – | – | – | – | –
N[C@@H](Cc1cc(I)c(Oc2cc(I)c(O)c(I)c2)c(I)c1)C(=O)O [LEVOTHYROXINE] | – | – | – | > 30 | > 30 | > 30 | 8.7 | > 30 | –
CNC1(c2ccccc2Cl)CCCCC1=O (stereo unspecified) [KETAMINE] | > 30 | > 30 | > 30 | – | – | – | – | – | –
CS(=O)(=O)Nc1ccc([N+](=O)[O-])cc1Oc1ccccc1 [NIMESULIDE] | > 30 | – | > 30 | > 30 | > 30 | > 30 | > 30 | > 30 | > 30
CC(C)/N=c1\cc2n(-c3ccc(Cl)cc3)c3ccccc3nc-2cc1Nc1ccc(Cl)cc1 [CLOFAZIMINE] | – | – | – | > 30 | > 30 | > 30 | > 30 | > 30 | 29
Cc1cccc(C)c1NC(=O)c1cc(S(N)(=O)=O)c(Cl)cc1O [XIPAMIDE] | > 30 | > 30 | > 30 | – | – | – | – | – | –
C=CCOc1ccc(CC(=O)O)cc1Cl [ALCLOFENAC] | > 30 | > 30 | > 30 | – | – | – | – | – | –
Cc1ccc(C(C)C)c(O)c1 [THYMOL] | > 30 | > 30 | > 30 | – | – | – | – | – | –
N#Cc1ccnc(N2C(=O)CC[C@H]2C(=O)N(c2cncc(F)c2)[C@H](C(=O)NC2CC(F)(F)C2)c2ccccc2Cl)c1 [IVOSIDENIB] | > 30 | > 30 | > 30 | – | – | – | – | – | –
C[C@@H](CN1CC(=O)NC(=O)C1)N1CC(=O)NC(=O)C1 [DEXRAZOXANE] | > 30 | > 30 | > 30 | – | – | – | – | – | –
O=c1[nH]c2ccccc2n1CCN1CCN(c2cccc(C(F)(F)F)c2)CC1 [FLIBANSERIN] | > 30 | 15.6 | > 30 | – | – | – | – | – | –
N=C(N)NCC1COc2ccccc2O1 (stereo unspecified) [GUANOXAN] | > 30 | > 30 | > 30 | – | – | – | – | – | –
CC(C)(Oc1ccc(Cl)cc1)C(=O)NC(=O)NCN1CCOCC1 [PLAFIBRIDE] | > 30 | > 30 | > 30 | – | – | – | – | – | –
CN1CC2c3ccccc3Oc3ccc(Cl)cc3C2C1 (stereo unspecified) [ASENAPINE] | – | – | – | 19 | > 30 | – | > 30 | 0.0014 | –
C[C@]12CC[C@@H]3c4ccc(OC(=O)N(CCCl)CCCl)cc4CC[C@H]3[C@@H]1CC[C@@H]2OP(=O)(O)O [ESTRAMUSTINE PHOSPHATE] | > 30 | 7.84 | > 30 | – | – | – | – | – | –
O=C(O)[C@H]1/C(=C/CO)O[C@@H]2CC(=O)N21 [CLAVULANIC ACID] | – | – | – | > 30 | > 30 | – | > 30 | > 30 | –

SMILES | AC50 (Acetylcholinesterase) [µM] | AC50 (Adenosine receptor A3) [µM] | AC50 [1] [µM] | AC50 [2] [µM] | AC50 (Cannabinoid receptor 1) [µM] | AC50 [3] [µM] | AC50 (Progesterone receptor) [µM] | AC50 [4] [µM] | AC50 [5] [µM]
O=NN(CCCl)C(=O)NC1CCCCC1 [LOMUSTINE] | > 30 | > 30 | > 30 | – | – | – | – | – | –
CC1=C(C/C=C(\C)CCC[C@H](C)CCC[C@H](C)CCCC(C)C)C(=O)c2ccccc2C1=O [PHYTONADIONE] | > 30 | > 30 | 3.44 | – | – | – | – | – | –
CN1CCC(N(Cc2cccs2)c2ccccc2)CC1 [THENALIDINE] | > 30 | > 30 | > 30 | – | – | – | – | – | –
CCCCCCO[C@@H](C)c1cccc(-c2csc(NC(=O)c3cc(Cl)c(/C=C(\C)C(=O)O)c(Cl)c3)n2)c1OC [LUSUTROMBOPAG] | > 30 | 0.334 | > 30 | – | – | – | – | – | –
OC[C@H]1NC[C@H](O)[C@@H](O)[C@H]1O | > 30 | > 30 | > 30 | – | – | – | – | – | –
COc1cc2c(cc1OC)C1CC(=O)C(CC(C)C)CN1CC2 (stereo unspecified) [TETRABENAZINE] | – | – | – | > 30 | > 30 | – | > 30 | > 30 | –
CCN(CC)CCn1c(=O)c(Cc2ccc(OC)cc2)nc2ccccc21 [CAROVERINE] | – | – | – | > 30 | > 30 | > 30 | > 30 | > 30 | > 30
C[C@H](Nc1ncnc2[nH]cnc12)c1cc2cccc(Cl)c2c(=O)n1-c1ccccc1 [DUVELISIB] | > 30 | – | 16.8 | > 30 | > 30 | – | > 30 | > 30 | –
CC(C)(CO)c1cc2cc(NC(=O)C3(c4ccc5c(c4)OC(F)(F)O5)CC3)c(F)cc2n1C[C@@H](O)CO [TEZACAFTOR] | – | – | – | > 30 | > 30 | – | > 30 | > 10 | –
CN(C)CCOC(c1ccc(Cl)cc1)c1ccccn1 (stereo unspecified) [CARBINOXAMINE] | – | – | – | > 30 | > 30 | > 30 | > 30 | > 30 | –
Nc1c2c(nc3ccccc13)CCCC2O (stereo unspecified) [VELNACRINE] | – | – | – | > 30 | > 30 | – | > 30 | > 30 | –
CC(=O)NC[C@H]1CN(c2ccc(N3CCOCC3)c(F)c2)C(=O)O1 [LINEZOLID] | – | – | – | – | > 30 | > 30 | > 30 | > 30 | > 30
Cn1cnc2c(F)c(Nc3ccc(Br)cc3F)c(C(=O)NOCCO)cc21 [BINIMETINIB] | – | – | – | > 30 | > 30 | – | > 30 | > 30 | –
CCC[C@@]1(CCc2ccccc2)CC(O)=C([C@H](CC)c2cccc(NS(=O)(=O)c3ccc(C(F)(F)F)cn3)c2)C(=O)O1 | – | – | – | > 30 | > 30 | – | 13 | 4.7 | –
CCOCC(O)COc1ccc(NC(=O)CC[S+](C)C)cc1 (stereo unspecified) | – | – | – | > 30 | > 30 | – | > 30 | > 30 | –
